Laboratory results published in ChEMBL document CHEMBL1201862, “PubChem BioAssay data set” (2004).
Active and inactive are the calls of the source.

Columns and labels:
[1] = biological target: T1, Phospholipase D2 (Homo sapiens, UniProt O14939); assay: cellular phospholipase D2 inhibition IC50 – cell-based, dose response (AID 602147); assay type: functional;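 also: cellular assay in HEK293 cells overexpressing GFP-tagged PLD2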
[2] = biological target: Phospholipase D1 (Homo sapiens, UniProt Q13393); assay: PLD1 purified enzyme concentration response. [Related pubchem assays (depositor defined):AID588854]; assay type: functional
Phospholipase D1, sequence (Q13393 whole entry): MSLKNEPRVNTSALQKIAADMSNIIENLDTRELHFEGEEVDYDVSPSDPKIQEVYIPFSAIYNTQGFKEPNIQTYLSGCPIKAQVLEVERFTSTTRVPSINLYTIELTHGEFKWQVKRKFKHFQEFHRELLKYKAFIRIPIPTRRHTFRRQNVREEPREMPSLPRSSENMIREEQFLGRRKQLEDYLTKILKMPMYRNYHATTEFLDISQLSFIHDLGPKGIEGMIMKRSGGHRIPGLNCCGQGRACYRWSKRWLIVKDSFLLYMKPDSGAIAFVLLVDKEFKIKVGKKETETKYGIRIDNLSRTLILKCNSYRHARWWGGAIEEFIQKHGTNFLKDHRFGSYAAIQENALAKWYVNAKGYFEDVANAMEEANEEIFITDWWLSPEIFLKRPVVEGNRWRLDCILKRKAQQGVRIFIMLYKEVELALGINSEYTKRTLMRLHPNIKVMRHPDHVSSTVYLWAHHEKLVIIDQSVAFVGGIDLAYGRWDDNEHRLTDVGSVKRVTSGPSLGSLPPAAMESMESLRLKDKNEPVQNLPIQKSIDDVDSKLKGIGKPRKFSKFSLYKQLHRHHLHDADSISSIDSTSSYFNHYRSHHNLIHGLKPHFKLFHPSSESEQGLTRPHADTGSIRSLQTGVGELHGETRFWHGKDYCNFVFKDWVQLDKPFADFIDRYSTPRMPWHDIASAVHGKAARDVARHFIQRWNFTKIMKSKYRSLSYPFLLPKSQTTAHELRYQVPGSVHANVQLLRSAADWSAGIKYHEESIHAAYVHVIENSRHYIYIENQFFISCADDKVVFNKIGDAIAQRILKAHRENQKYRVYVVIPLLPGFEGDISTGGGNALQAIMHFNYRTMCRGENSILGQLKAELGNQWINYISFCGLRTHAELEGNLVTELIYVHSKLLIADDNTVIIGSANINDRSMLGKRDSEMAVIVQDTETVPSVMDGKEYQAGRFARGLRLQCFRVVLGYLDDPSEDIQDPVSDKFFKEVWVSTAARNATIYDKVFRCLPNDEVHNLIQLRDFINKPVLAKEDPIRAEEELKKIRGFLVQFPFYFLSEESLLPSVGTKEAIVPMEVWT

[3] = biological target: T1, Phospholipase D2; assay: PLD2 purified enzyme concentration response. [Related pubchem assays (depositor defined):AID588854]; assay type: functional
[4] = CellTiter-Glo luminescence survival assay, SW480 colon tumor line, concentration-response curve, half-maximal inhibitory concentration (AID 1117338); assay type: functional
[5] = SNU-C1 cell viability reduction, dose response, CellTiter-Glo luminescence (AID 1117323); assay type: functional, cell-based
[6] = cytotoxicity toward HCT116 cells – cell-based, CellTiter-Glo luminescence, IC50, dose response (AID 1117332); assay type: functional; conditions: HCT-116
[7] = tested on: HEK293; assay: cells; assay type: functional, cell-based; conditions: Homo sapiens
[8] = cells; assay type: functional, cell-based
[9] = cells; assay type: functional, cell-based; remark: listed apart in the source
[10] = biological target: T2, Oxysterols receptor LXR-beta (Homo sapiens, UniProt P55055); assay type: functional, cell-based;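 also: agonist activity at LXR measured by a cell-based luminescence readout across a dose range, run as a counterscreen for daf-12 agonists; HEK293 cells with Gal4-LXR fusion and GAL4-driven luciferase reporter; potency for activation of Gal4-LXR reporter so compounds are agonists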
T2 sequence (P55055 whole entry): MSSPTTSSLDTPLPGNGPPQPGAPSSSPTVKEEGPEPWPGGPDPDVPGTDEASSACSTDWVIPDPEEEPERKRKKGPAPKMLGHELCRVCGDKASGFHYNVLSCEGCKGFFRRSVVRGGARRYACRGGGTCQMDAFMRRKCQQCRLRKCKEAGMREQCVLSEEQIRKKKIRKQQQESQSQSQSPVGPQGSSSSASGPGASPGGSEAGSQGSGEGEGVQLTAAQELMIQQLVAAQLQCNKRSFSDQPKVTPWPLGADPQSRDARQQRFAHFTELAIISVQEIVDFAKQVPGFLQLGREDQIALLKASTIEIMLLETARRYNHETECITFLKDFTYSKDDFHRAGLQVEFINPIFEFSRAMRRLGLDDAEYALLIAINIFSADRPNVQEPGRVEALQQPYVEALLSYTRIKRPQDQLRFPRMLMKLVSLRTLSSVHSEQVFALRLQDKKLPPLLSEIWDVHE

[11] = cytotoxicity toward Colo320 cells – cell-based, CellTiter-Glo luminescence, IC50, dose response (AID 1117334); assay type: functional; conditions: COLO 320
[12] = biological target: Nuclear receptor subfamily 0 group B member 1 (Homo sapiens, UniProt P51843); assay: Luminescence-based cell-based high throughput dose response assay for inhibitors of the orphan nuclear receptor subfamily 0, group B, member 1 (DAX1; NR0B1). [Related pubchem assays (depositor defined):AID504766, AID504790]; assay type: functional
Nuclear receptor subfamily 0 group B member 1, sequence (P51843 whole entry): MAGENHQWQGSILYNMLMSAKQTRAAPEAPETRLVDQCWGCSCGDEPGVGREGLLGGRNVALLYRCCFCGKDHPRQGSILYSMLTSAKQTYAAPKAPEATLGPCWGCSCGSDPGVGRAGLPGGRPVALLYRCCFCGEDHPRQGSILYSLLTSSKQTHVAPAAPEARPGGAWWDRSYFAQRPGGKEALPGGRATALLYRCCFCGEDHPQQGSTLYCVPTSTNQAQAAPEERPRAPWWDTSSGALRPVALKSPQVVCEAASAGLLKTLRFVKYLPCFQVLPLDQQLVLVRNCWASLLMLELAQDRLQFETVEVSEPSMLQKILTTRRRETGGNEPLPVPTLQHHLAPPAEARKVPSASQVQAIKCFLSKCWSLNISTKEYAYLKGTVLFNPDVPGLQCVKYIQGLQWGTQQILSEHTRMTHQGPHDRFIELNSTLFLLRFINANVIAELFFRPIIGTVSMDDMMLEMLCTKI

[13] = HCT116 cell viability decrease, GSK3B pretreatment – CellTiter-Glo, IC50, dose response (AID 1117339); assay type: functional; conditions: HCT-116
[14] = RKO cell viability reduction, dose response, CellTiter-Glo luminescence (AID 1117322); assay type: functional
[15] = Reduced DLD-1 viability, concentration-response, CellTiter-Glo luminescence (AID 1117352); assay type: functional
[16] = cytotoxicity toward HT-29 cells – cell-based, CellTiter-Glo luminescence, IC50, dose response (AID 1117330); assay type: functional
[17] = biological target: Dual specificity protein phosphatase 3 (Homo sapiens, UniProt P51452); assay: SAR VHR1 Fluorescent Assay for In Vitro dose response studies Set 3. [Related pubchem assays (depositor defined):AID1654, AID1661, AID1878]; assay type: functional
Dual specificity protein phosphatase 3, sequence (P51452 whole entry): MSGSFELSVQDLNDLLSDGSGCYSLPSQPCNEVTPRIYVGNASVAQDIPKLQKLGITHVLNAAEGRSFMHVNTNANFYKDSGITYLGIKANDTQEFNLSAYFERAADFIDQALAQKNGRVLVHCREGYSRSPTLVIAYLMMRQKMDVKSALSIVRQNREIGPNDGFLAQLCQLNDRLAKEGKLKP

[18] = biological target: T3, Hexokinase HKDC1 (Homo sapiens, UniProt Q2TB90); assay: analog inhibition of human HKDC1 activity – biochemical, set 2, SAR follow-up (AID 588355); assay type: functional
T3 sequence (Q2TB90 whole entry): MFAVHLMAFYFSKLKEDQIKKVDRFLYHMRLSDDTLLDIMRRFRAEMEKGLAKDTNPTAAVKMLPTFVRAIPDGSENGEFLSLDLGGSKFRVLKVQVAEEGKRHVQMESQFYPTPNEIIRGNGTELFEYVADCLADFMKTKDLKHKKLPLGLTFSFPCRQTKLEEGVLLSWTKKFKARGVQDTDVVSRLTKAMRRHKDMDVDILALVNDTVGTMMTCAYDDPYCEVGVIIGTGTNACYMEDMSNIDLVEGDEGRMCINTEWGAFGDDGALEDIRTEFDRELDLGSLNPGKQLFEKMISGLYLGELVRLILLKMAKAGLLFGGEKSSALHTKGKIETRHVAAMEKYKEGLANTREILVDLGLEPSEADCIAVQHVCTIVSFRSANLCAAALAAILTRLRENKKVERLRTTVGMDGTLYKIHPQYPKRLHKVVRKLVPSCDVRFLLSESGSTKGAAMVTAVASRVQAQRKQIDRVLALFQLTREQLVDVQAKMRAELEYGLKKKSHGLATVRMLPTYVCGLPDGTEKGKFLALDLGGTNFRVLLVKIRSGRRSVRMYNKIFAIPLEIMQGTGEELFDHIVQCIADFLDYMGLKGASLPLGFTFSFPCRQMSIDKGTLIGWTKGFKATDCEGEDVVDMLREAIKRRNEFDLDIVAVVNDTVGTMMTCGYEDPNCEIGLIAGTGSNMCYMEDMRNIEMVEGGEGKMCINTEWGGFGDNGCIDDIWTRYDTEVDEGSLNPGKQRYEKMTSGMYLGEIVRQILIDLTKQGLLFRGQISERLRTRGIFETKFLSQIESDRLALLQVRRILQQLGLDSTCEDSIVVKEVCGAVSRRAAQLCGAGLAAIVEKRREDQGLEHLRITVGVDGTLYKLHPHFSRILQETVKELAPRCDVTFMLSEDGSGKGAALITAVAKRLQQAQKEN

[19] = biological target: T4, Hexokinase-1 (Homo sapiens, UniProt P19367); assay: hexokinase 1 activity inhibitors, potency – biochemical, set 2, resazurin fluorescence coupled readout, selectivity assay for HKDC1 inhibitor project, SAR follow-up (AID 588356); assay type: functional
T4 sequence (P19367 whole entry): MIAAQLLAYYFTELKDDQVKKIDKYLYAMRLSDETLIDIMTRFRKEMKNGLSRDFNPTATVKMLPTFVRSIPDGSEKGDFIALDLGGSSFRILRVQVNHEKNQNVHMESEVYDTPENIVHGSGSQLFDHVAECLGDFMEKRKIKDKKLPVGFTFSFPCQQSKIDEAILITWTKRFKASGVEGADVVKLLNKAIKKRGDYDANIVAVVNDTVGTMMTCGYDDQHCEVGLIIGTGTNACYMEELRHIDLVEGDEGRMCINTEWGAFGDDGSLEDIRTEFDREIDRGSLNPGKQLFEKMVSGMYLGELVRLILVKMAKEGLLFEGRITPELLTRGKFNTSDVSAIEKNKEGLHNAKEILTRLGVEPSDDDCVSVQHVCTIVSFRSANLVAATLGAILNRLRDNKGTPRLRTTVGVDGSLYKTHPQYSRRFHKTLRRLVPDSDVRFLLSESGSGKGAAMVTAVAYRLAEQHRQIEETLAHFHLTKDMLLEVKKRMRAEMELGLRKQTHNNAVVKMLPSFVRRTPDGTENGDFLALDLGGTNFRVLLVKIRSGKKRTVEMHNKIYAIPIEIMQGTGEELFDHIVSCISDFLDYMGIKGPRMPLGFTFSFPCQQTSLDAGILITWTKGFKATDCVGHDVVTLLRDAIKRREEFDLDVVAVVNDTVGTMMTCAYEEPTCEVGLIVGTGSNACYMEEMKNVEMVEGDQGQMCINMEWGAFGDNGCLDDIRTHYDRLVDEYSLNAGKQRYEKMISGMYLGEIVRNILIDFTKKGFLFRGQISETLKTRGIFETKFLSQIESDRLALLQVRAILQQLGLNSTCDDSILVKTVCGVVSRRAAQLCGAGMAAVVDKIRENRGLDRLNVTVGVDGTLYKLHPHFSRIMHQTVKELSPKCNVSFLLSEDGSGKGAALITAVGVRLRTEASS

T1 sequence (O14939 whole entry): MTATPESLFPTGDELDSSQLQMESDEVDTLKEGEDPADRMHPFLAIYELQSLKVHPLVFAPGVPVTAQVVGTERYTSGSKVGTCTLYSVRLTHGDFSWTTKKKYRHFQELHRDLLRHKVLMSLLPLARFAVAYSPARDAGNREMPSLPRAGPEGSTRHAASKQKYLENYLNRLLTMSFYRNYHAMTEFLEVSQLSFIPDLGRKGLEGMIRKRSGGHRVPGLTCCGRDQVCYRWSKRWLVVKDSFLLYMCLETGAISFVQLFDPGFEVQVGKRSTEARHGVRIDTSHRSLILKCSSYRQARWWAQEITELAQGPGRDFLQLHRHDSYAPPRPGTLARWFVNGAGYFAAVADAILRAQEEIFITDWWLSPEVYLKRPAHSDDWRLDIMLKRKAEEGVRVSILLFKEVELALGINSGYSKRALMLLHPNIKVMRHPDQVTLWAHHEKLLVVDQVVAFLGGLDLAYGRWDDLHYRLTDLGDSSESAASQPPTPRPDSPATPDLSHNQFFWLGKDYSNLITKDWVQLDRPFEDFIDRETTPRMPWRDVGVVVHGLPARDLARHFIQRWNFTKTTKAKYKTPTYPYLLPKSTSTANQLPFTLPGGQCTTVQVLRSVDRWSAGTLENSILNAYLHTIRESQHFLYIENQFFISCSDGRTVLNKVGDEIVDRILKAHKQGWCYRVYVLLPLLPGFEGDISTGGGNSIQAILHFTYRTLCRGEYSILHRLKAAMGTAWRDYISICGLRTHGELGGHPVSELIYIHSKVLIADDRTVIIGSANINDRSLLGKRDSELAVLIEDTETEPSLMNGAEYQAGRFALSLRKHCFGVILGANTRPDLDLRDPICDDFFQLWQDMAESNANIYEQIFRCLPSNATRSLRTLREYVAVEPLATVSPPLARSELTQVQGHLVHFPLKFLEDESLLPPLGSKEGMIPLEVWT

## C[C@@H](CN1CCC2(CC1)C(=O)NCN2c1ccccc1)NC(=O)c1ccc(F)c(F)c1
[1]
  IC50: 0.21 µM (active)
[2]
  IC50: 2.15 µM (active)
[3]
  IC50: 2.22 µM (active)

## Nc1ccc(C(=O)Nc2ccccc2N)cc1 [DINALINE]
[4]
  IC50: > 20 µM (inactive)
[5]
  IC50: > 20 µM (inactive)
[6]
  IC50: > 6.67 µM (inactive)
[7]
  IC50: 0.255 µM (active)
[8]
  EC50: 18.7 µM (active)
[9]
  EC50: > 350 µM (not active)
[10]
  EC50: > 67.6 µM (inactive)
[11]
  IC50: > 20 µM (inactive)
[12]
  IC50: 19.8 µM (inactive)
[13]
  IC50: 12.9 µM (inactive)
[14]
  IC50: > 20 µM (inactive)
[15]
  IC50: > 20 µM (inactive)
[16]
  IC50: > 20 µM (inactive)

## COc1ccc(C(=O)Nc2nc3c(OC)ccc(C)c3s2)cc1
[17]
  IC50: 48.7 µM (active)

## O=c1c2cc(Cl)ccc2nc(/C=C/c2cccnc2)n1Cc1ccccc1
[18]
  IC50: > 80 µM (inactive)
[19]
  IC50: > 80 µM (inactive)
